# Results taken from patent US20130237557A1, “TREATMENT” (UCL BUSINESS PLC, priority 2010, published 2013).
# “Also recorded” adds a separate entry of the source.
# How the values were obtained:
# [1] = test system: bile duct ligated (BDL) rat; test: Brain water content in BDL rats; assay type: in vivo; conditions: vs untreated BDL
# Text: (§1) These experiments utilised an established animal model of cirrhosis, the bile duct ligated (BDL) rat. BDL rats may be generated by methods known in the art. For example, male Sprague-Dawley rats (200-250 g) may be used for this procedure. Following anaesthetisation, a mid-line laparotamy may be performed, the bile duct exposed, triply ligated with 4.0 silk suture, and severed between the second and third ligature. The wound is then closed in layers with absorbable suture, and the animal allowed to recover in a quiet room before being returned to the animal storage facility.
# (§2) 29 bile duct ligated rats and 17 sham operated rats were studied at the end of four weeks. The animals were randomised to receive a placebo (saline) or an alpha 2a antagonist (BRL 44408, Sigma, UK). The dose applied was 10 mgs/Kg by sub cutaneous injection: two doses were delivered 24 hours prior to study.
# The brain water content signifies the amount of brain swelling that occurs as a result of inflammation in the brain.
# [2] = test system: bile duct ligated (BDL) rat; test: Haemodynamics in bile duct ligated (BDL) rats treated with alpha 2a antagonist; assay type: in vivo; conditions: for mean arterial pressure (MAP): two doses 24 hours prior to study, vs placebo/untreated BDL; for hepatic arterial blood flow: vs BDL treated with saline, Transonic flow probe
# Text: as §1, §2
# (§3) Mean arterial pressure was measured via a transducer through the left carotid artery. Portal pressure readings were taken by direct puncture of portal vein and transducer. Portal vein and hepatic artery flow measurements were done with a transonic flow probe and meter. All measurements were done in triplicates and recorded in data collection sheets.
# (§4) Data are shown as median (range) or mean±standard error (SEM). Two tailed unpaired t-test was used to define difference between the means of normally distributed data of equal variance. For data that was not equally distributed, a Mann-Whitney test was used. Comparison of multiple groups was by analysis of variance (ANOVA) with a Bonferroni correction for multiple comparison.
# [3] = test system: bile duct ligated (BDL) rat; test: Plasma biochemistry in BDL rats (colorimetry, Cobas Integra); assay type: in vivo
# Text: as §1, §2
# (§5) Plasma biochemistry was measured by colorimetry using a Cobas Integra. Alpha 2a adrenergic receptor (ADRA 2a) and Nuclear Factor κ B (NFκB) protein expression were assessed by western blotting. ADRA2a expression was determined by immunohistochemistry.
# as §4
# sham operated rat [4] = test: Haemodynamics in sham operated rats treated with alpha 2a antagonist; assay type: in vivo
# Description: as §2, §3, §4
# sham operated rat [5] = test: Plasma biochemistry in sham operated rats (colorimetry, Cobas Integra); assay type: in vivo; conditions: sham rats treated vs sham operated rats
# Description: as §2, §5, §4
# [6] = test system: Nuclear Factor κ B (NFκB); test: NFκB protein expression in liver tissue of BDL rats by western blotting; assay type: in vivo, rat; conditions: vs untreated BDL
# Text: as §1, §2, §5
# The protein expression was assessed by the western blotting technique. NFkB is an important regulator of cell signalling pathways including apoptosis and inflammation.
smiles,measurement,setting,value
"CC1c2ccccc2CN1CC1=NCCN1 (centres unmarked) [BRL 44408, 2-[(4,5-Dihydro-1H-imidazol-2-yl)methyl]-2,3-dihydro-1-methyl-1H-isoindole]",brain water content,[1],significantly decreased; also recorded: reduced
same,mean arterial pressure (MAP),"[2]; BDL rats, 10 mgs/Kg sub cutaneous",significantly improved; also recorded: increased
same,mean arterial pressure (MAP),"[2]; BDL rats, 10 mgs/Kg sub cutaneous, listed as ADRA2a antagonist",significant increase
same,portal pressure,"[2]; BDL rats, 10 mgs/Kg sub cutaneous, two doses, treated group value (placebo 18.0±3.7), p<0.001",11.4±3.4 mmHg
same,cardiac output,"[2]; BDL rats, heart rate x stroke volume from echocardiogram, vs untreated BDL",improved significantly
same,intra hepatic resistance,"[2]; BDL rats, post treatment value (untreated 1.1±0.2), p<0.05, portal pressure divided by hepatic blood flow",0.5±0.1 mmHg/ml/min
same,portal pressure,"[2]; BDL rats, vs BDL rats treated with saline, change in words",significantly reduced; also recorded: lowered
same,hepatic arterial blood flow,[2]; BDL rats,markedly increased
same,hepatic arterial blood flow,"[2]; BDL rats, listed as BRL44408",improved
same,intra hepatic resistance,"[2]; BDL rats, vs untreated BDL, change in words",significantly reduced; also recorded: lowered
same,portal venous blood flow,[2]; treated group vs placebo,without significant change
same,liver specific alanine aminotransferase (ALT),[3]; p=0.5,non significant increase
same,plasma ammonia,[3]; vs untreated BDL,trend towards reduction; also recorded: reduced
same,plasma aspartate aminotransaminase (AST),[3]; vs untreated BDL,significant reduction; also recorded: reduced
same,plasma lactate,[3]; vs untreated BDL,significant reduction
same,plasma lactate,"[3]; vs untreated BDL, listed as BRL",significantly reduced
same,plasma creatinine,"[3]; vs untreated BDL, marker for renal function",trend towards reduction; also recorded: improved; also recorded: reduced
same,mean arterial pressure (MAP),"sham operated rat [4]; sham operated rats, 10 mgs/Kg sub cutaneous, treated vs untreated sham",no difference
same,hepatic arterial blood flow,"sham operated rat [4]; sham operated rats, vs sham treated with saline",improvement
same,portal pressure,sham operated rat [4]; sham rats treated vs saline,no difference
same,intra hepatic resistance,sham operated rat [4]; sham rats treated vs sham rats,no difference
same,plasma creatinine,sham operated rat [5],no difference
same,NFkB protein expression in the liver tissue,[6],reduced
